According to US12037345B2, “Heterobicyclic compounds for inhibiting the activity of SHP2” (TAIHO PHARMACEUTICAL CO., LTD., priority 2018, dated 2024):

Assays:
[1] = target: SHP2 (Homo sapiens (Human), UniProt Q06124); test: SHP2 Biochemical Assay (DiFMUP conversion, pIRS1-activated); details: Table 19; head prints unit as "-M"
Outline: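 Human SHP2 (10 pM) pre-incubated 30 min with compound and […] pIRS1 activating peptide, then 50 μM DiFMUP added; buffer 25 mM Bis-Tris propane pH 7.0, 150 mM NaCl, 5% DMSO. Fluorescence rate (ex 360/em 450 nm) over 30 min; IC50 by four-parameter fit, averaged across experiments.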

[2] = system: pERK (phospho-p44/42 ERK) in HCC827 cells; test: Cellular pERK Inhibition Assay, Method A (In-Cell Western); format: cell-based; details: Homo sapiens, Table 19, head prints unit as "-M", read-out: pERK (IC50) Method A
Outline: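 HCC827 cells in RPMI/10% FBS were treated with compounds in serum-free medium (0.2% DMSO final) at 37 °C for the indicated time, in quadruplicate. Fixed cells were immunostained for phospho-p44/42 ERK and read by infrared imaging. Blank-subtracted signal was expressed as % of DMSO control; IC50 from four-parameter logistic fit, averaged across experiments.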

Compound	IC50 [1]	IC50 [2]
Cn1cc2c(Cl)c(-c3c[nH]c4nc(N5CC6CC5CC6N)n(C)c(=O)c34)ccc2n1 (stereo not shown) [Example 35, 2-(5-amino-2-azabicyclo[2.2.1]heptan-2-yl)-5-(4-chloro-2-methyl-2H-indazol-5-yl)-3-methyl-3,7-dihydro-4H-pyrrolo[2,3-d]pyrimidin-4-one]	0.038 µM	1 µM
Cn1cc2c(Cl)c(-c3c[nH]c4nc(N5[C@@H]6CCC[C@H]5C[C@H](N)C6)n(C)c(=O)c34)ccc2n1 [Example 36, 2-(exo-3-amino-9-azabicyclo[3.3.1]nonan-9-yl)-5-(4-chloro-2-methyl-2H-indazol-5-yl)-3-methyl-3,7-dihydro-4H-pyrrolo[2,3-d]pyrimidin-4-one]	0.0055 µM	0.35 µM
Cn1cc2c(Cl)c(-c3c[nH]c4nc(N5[C@@H]6CCC[C@H]5C[C@@H](N)C6)n(C)c(=O)c34)ccc2n1 [Example 37, 2-(endo-3-amino-9-azabicyclo[3.3.1]nonan-9-yl)-5-(4-chloro-2-methyl-2H-indazol-5-yl)-3-methyl-3,7-dihydro-4H-pyrrolo[2,3-d]pyrimidin-4-one]	0.012 µM	0.97 µM
Cn1cc2c(Cl)c(-c3c[nH]c4nc(N5CCC6(CCCN6)CC5)n(C)c(=O)c34)ccc2n1 [Example 38, 5-(4-chloro-2-methyl-2H-indazol-5-yl)-3-methyl-2-(1,8-diazaspiro[4.5]decan-8-yl)-3,7-dihydro-4H-pyrrolo[2,3-d]pyrimidin-4-one]	0.074 µM	1.4 µM
Cn1cc2c(Cl)c(-c3c[nH]c4nc(N5CCNCC5)n(C)c(=O)c34)ccc2n1 [Example 39, 5-(4-chloro-2-methyl-2H-indazol-5-yl)-3-methyl-2-(piperazin-1-yl)-3,7-dihydro-4H-pyrrolo[2,3-d]pyrimidin-4-one]	0.066 µM	0.7 µM
Cn1cc2c(Cl)c(-c3c[nH]c4nc(N5CCC6NCC6C5)n(C)c(=O)c34)ccc2n1 (stereo not shown) [Example 40, 2-(3,7-diazabicyclo[4.2.0]octan-3-yl)-5-(4-chloro-2-methyl-2H-indazol-5-yl)-3-methyl-3,7-dihydro-4H-pyrrolo[2,3-d]pyrimidin-4-one]	0.096 µM	4.5 µM
Cn1cc2c(Cl)c(-c3c[nH]c4nc(N5CCC6(CCCCN6)CC5)n(C)c(=O)c34)ccc2n1 [Example 41, 5-(4-chloro-2-methyl-2H-indazol-5-yl)-3-methyl-2-(1,9-diazaspiro[5.5]undecan-9-yl)-3,7-dihydro-4H-pyrrolo[2,3-d]pyrimidin-4-one]	0.057 µM	1.8 µM
Cn1cc2c(Cl)c(-c3c[nH]c4nc(N5CC[C@H](N)C5)n(C)c(=O)c34)ccc2n1 [Example 43, (S)-2-(3-aminopyrrolidin-1-yl)-5-(4-chloro-2-methyl-2H-indazol-5-yl)-3-methyl-3,7-dihydro-4H-pyrrolo[2,3-d]pyrimidin-4-one]	0.035 µM	0.72 µM
Cn1cc2c(Cl)c(-c3c[nH]c4nc(N5CC[C@@H](N)C5)n(C)c(=O)c34)ccc2n1 [Example 44, (R)-2-(3-aminopyrrolidin-1-yl)-5-(4-chloro-2-methyl-2H-indazol-5-yl)-3-methyl-3,7-dihydro-4H-pyrrolo[2,3-d]pyrimidin-4-one]	0.055 µM	1.5 µM
C[C@H]1CN(c2nc3[nH]cc(-c4ccc5nn(C)cc5c4Cl)c3c(=O)n2C)CCN1 [Example 45, (S)-5-(4-chloro-2-methyl-2H-indazol-5-yl)-3-methyl-2-(3-methylpiperazin-1-yl)-3,7-dihydro-4H-pyrrolo[2,3-d]pyrimidin-4-one]	0.11 µM	1.5 µM
Cn1cc2c(Cl)c(-c3c[nH]c4nc(N5[C@@H]6CC[C@H]5[C@@H](N)C6)n(C)c(=O)c34)ccc2n1 [Example 46, 2-((1S,2S,4R)-2-amino-7-azabicyclo[2.2.1]heptan-7-yl)-5-(4-chloro-2-methyl-2H-indazol-5-yl)-3-methyl-3,7-dihydro-4H-pyrrolo[2,3-d]pyrimidin-4-one]	0.033 µM	0.42 µM
C[C@@H]1CNCCN1c1nc2[nH]cc(-c3ccc4nn(C)cc4c3Cl)c2c(=O)n1C [Example 47, (R)-5-(4-chloro-2-methyl-2H-indazol-5-yl)-3-methyl-2-(2-methylpiperazin-1-yl)-3,7-dihydro-4H-pyrrolo[2,3-d]pyrimidin-4-one]	0.032 µM	0.38 µM
C[C@H]1CNCCN1c1nc2[nH]cc(-c3ccc4nn(C)cc4c3Cl)c2c(=O)n1C [Example 48, (S)-5-(4-chloro-2-methyl-2H-indazol-5-yl)-3-methyl-2-(2-methylpiperazin-1-yl)-3,7-dihydro-4H-pyrrolo[2,3-d]pyrimidin-4-one]	0.085 µM	1 µM
Cn1cc2c(Cl)c(-c3c[nH]c4nc(N5[C@H]6CC[C@@H]5[C@H](N)C6)n(C)c(=O)c34)ccc2n1 [Example 49, 2-((1R,2R,4S)-2-amino-7-azabicyclo[2.2.1]heptan-7-yl)-5-(4-chloro-2-methyl-2H-indazol-5-yl)-3-methyl-3,7-dihydro-4H-pyrrolo[2,3-d]pyrimidin-4-one]	0.0045 µM	0.021 µM
Cn1cc2c(Cl)c(-c3c[nH]c4nc(N5C[C@@H](N)[C@@H](F)C5)n(C)c(=O)c34)ccc2n1 [Example 50, 2-((3R,4S)-3-amino-4-fluoropyrrolidin-1-yl)-5-(4-chloro-2-methyl-2H-indazol-5-yl)-3-methyl-3,7-dihydro-4H-pyrrolo[2,3-d]pyrimidin-4-one]	0.25 µM	4.7 µM
Cn1cc2c(Cl)c(-c3c[nH]c4nc(N5C[C@H](N)[C@@H](F)C5)n(C)c(=O)c34)ccc2n1 [Example 52, 2-((3S,4S)-3-amino-4-fluoropyrrolidin-1-yl)-5-(4-chloro-2-methyl-2H-indazol-5-yl)-3-methyl-3,7-dihydro-4H-pyrrolo[2,3-d]pyrimidin-4-one]	0.18 µM	1.9 µM

Further lines, results first:

IC50 [1]	IC50 [2]	Compound
0.33 µM	3.1 µM	Cn1cc2c(Cl)c(-c3c[nH]c4nc(N5CC(N)C(F)(F)C5)n(C)c(=O)c34)ccc2n1 (stereo not shown) [Example 53, 2-(4-amino-3,3-difluoropyrrolidin-1-yl)-5-(4-chloro-2-methyl-2H-indazol-5-yl)-3-methyl-3,7-dihydro-4H-pyrrolo[2,3-d]pyrimidin-4-one]
0.11 µM	1.8 µM	Cn1cc2c(Cl)c(-c3c[nH]c4nc(N5CC[C@](C)(N)C5)n(C)c(=O)c34)ccc2n1 [Example 54, (S)-2-(3-amino-3-methylpyrrolidin-1-yl)-5-(4-chloro-2-methyl-2H-indazol-5-yl)-3-methyl-3,7-dihydro-4H-pyrrolo[2,3-d]pyrimidin-4-one]
0.074 µM	1.1 µM	Cn1cc2c(Cl)c(-c3c[nH]c4nc(N5CC[C@@](C)(N)C5)n(C)c(=O)c34)ccc2n1 [Example 55, (R)-2-(3-amino-3-methylpyrrolidin-1-yl)-5-(4-chloro-2-methyl-2H-indazol-5-yl)-3-methyl-3,7-dihydro-4H-pyrrolo[2,3-d]pyrimidin-4-one]
0.073 µM	1.1 µM	C[C@@H]1CN(c2nc3[nH]cc(-c4ccc5nn(C)cc5c4Cl)c3c(=O)n2C)C[C@@H]1N [Example 56, 2-((3R,4R)-3-amino-4-methylpyrrolidin-1-yl)-5-(4-chloro-2-methyl-2H-indazol-5-yl)-3-methyl-3,7-dihydro-4H-pyrrolo[2,3-d]pyrimidin-4-one]
0.12 µM	2.9 µM	C[C@H]1CN(c2nc3[nH]cc(-c4ccc5nn(C)cc5c4Cl)c3c(=O)n2C)C[C@@H]1N [Example 57, 2-((3R,4S)-3-amino-4-methylpyrrolidin-1-yl)-5-(4-chloro-2-methyl-2H-indazol-5-yl)-3-methyl-3,7-dihydro-4H-pyrrolo[2,3-d]pyrimidin-4-one]
0.099 µM	> 10 µM	Cn1cc2c(Cl)c(-c3c[nH]c4nc(N5CCC(N)(CO)C5)n(C)c(=O)c34)ccc2n1 (stereo not shown) [Example 58, 2-(3-amino-3-(hydroxymethyl)pyrrolidin-1-yl)-5-(4-chloro-2-methyl-2H-indazol-5-yl)-3-methyl-3,7-dihydro-4H-pyrrolo[2,3-d]pyrimidin-4-one]
0.0055 µM	0.048 µM	C[C@@H]1OCC2(CCN(c3nc4[nH]cc(-c5ccc6nn(C)cc6c5Cl)c4c(=O)n3C)CC2)[C@@H]1N [Example 59, 2-((3S,4S)-4-amino-3-methyl-2-oxa-8-azaspiro[4.5]decan-8-yl)-5-(4-chloro-2-methyl-2H-indazol-5-yl)-3-methyl-3,7-dihydro-4H-pyrrolo[2,3-d]pyrimidin-4-one]
0.082 µM	3.8 µM	Cn1cc2c(Cl)c(-c3c[nH]c4nc(N5CC[C@H](CN)C5)n(C)c(=O)c34)ccc2n1 [Example 60, (R)-2-(3-(aminomethyl)pyrrolidin-1-yl)-5-(4-chloro-2-methyl-2H-indazol-5-yl)-3-methyl-3,7-dihydro-4H-pyrrolo[2,3-d]pyrimidin-4-one]
0.098 µM	1.8 µM	Cn1cc2c(Cl)c(-c3c[nH]c4nc(N5CC6CC6(N)C5)n(C)c(=O)c34)ccc2n1 (stereo not shown) [Example 61, 2-(1-amino-3-azabicyclo[3.1.0]hexan-3-yl)-5-(4-chloro-2-methyl-2H-indazol-5-yl)-3-methyl-3,7-dihydro-4H-pyrrolo[2,3-d]pyrimidin-4-one]
0.023 µM	0.36 µM	Cn1cc2c(Cl)c(-c3c[nH]c4nc(N5CC6C(N)C6C5)n(C)c(=O)c34)ccc2n1 (stereo not shown) [Example 62, 2-(6-amino-3-azabicyclo[3.1.0]hexan-3-yl)-5-(4-chloro-2-methyl-2H-indazol-5-yl)-3-methyl-3,7-dihydro-4H-pyrrolo[2,3-d]pyrimidin-4-one]
